Test results from US6737383B1, “Herbicidal oxadiazolidines” (priority 1999, dated 2004).

Columns and labels:
sugar beet = assay: Test B pre/postemergence sugar beet; assay type: in vivo, Beta vulgaris
Method in brief: (§1)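 Herbicidal effect was estimated by eye on a ten-point control scale after plants spent twelve to sixteen days in a greenhouse following soil or foliar treatment. Foliar sprays targeted plants at one to four leaves; all doses were formulated in a non-phytotoxic solvent with surfactant.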

bamyardgrass = assay: Test B flood test barnyardgrass; assay type: in vivo, Echinochloa crus-galli
Method in brief: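 Plants were grown to the 2-leaf stage before treatment with test chemical, then held in a greenhouse for twelve to sixteen days. Injury was visually rated against untreated controls on a 0–10 scale, where 0 is no effect and 10 is complete control.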

surinam grass = assay: Test B pre/postemergence surinam grass; assay type: in vivo, Brachiaria decumbens
Method in brief: as §1

blackgrass = assay: Test B pre/postemergence blackgrass; assay type: in vivo, Alopecurus myosuroides
Method in brief: as §1

[1] = Postemergence, Rate 1000 g/ha, scale 0 to 10 (0 no effect, 10 complete control)
[2] = Preemergence, Rate 250 g/ha, scale of 0 to 10 where 0 is no effect and 10 is complete control
[3] = Preemergence, Rate 500 g/ha, scale of 0 to 10 where 0 is no effect and 10 is complete control
[4] = Rate 125 g/ha, Preemergence, scale of 0 to 10 where 0 is no effect and 10 is complete control
[5] = Rate 500 g/ha, Postemergence, scale 0 to 10, 0 no effect, 10 complete control
[6] = Rate 1000 g/ha, Preemergence, scale 0 to 10 (0 no effect, 10 complete control)
[7] = Rate 125 g/ha, Pre-emergence, flood test species, scale 0 to 10 where 0 is no effect and 10 is complete control
[8] = Rate 250 g/ha, Pre-emergence, flood-test species, scale 0 to 10, 0 is no effect, 10 is complete control
[9] = Rate 500 g/ha, Pre-emergence, flood test species, scale 0 to 10 (0 no effect, 10 complete control)
[10] = Preemergence, Rate 62 g/ha, scale of 0 to 10 where 0 is no effect and 10 is complete control
[11] = Rate 125 g/ha, Postemergence, scale of 0 to 10 where 0 is no effect and 10 is complete control
[12] = Rate 250 g/ha, Postemergence, scale of 0 to 10 where 0 is no effect and 10 is complete control
[13] = Rate 62 g/ha, headed Pre-emergence (flood test species), scale 0 to 10 (0 no effect, 10 complete control)
[14] = Rate 62 g/ha, Postemergence, scale of 0 to 10 where 0 is no effect and 10 is complete control
[15] = Postemergence, Rate 31 g/ha, visual rating, scale 0 to 10 (0 no effect, 10 complete control)
[16] = Preemergence, Rate 31 g/ha, visual rating, scale 0 to 10 (0 no effect, 10 complete control)
[17] = Rate 62 g/ha, Postemergence, scale 0 to 10 (0 no effect, 10 complete control)

SMILES	Sugarbeets plant response rating (sugar beet; [2])	Plant response rating, Sugarbeets (sugar beet; [3])	Sugarbeets plant response rating (sugar beet; [4])	Barnyardgrass plant response rating (bamyardgrass; [7])	Barnyardgrass plant response rating (bamyardgrass; [8])	Barnyardgrass plant response rating (bamyardgrass; [9])	B. signalgrass plant response rating (surinam grass; [2])	Plant response rating, B. signalgrass (surinam grass; [3])	B. signalgrass plant response rating (surinam grass; [4])	Blackgrass plant response rating (blackgrass; [2])	Sugarbeets plant response rating (sugar beet; [10])	Sugarbeets plant response rating (sugar beet; [11])	Plant response rating, Sugarbeets (sugar beet; [12])	Barnyardgrass plant response rating (bamyardgrass; [13])	B. signalgrass plant response rating (surinam grass; [10])	B. signalgrass plant response rating (surinam grass; [11])	Plant response rating, B. signalgrass (surinam grass; [12])	Blackgrass plant response rating (blackgrass; [10])	Blackgrass plant response rating (blackgrass; [11])	Plant response rating, Blackgrass (blackgrass; [12])	further results
CCOC(=O)C(C)N(C(=O)n1oc(=O)n(-c2ccccc2C)c1=O)c1ccc(F)cc1 (centres unmarked) [Compound 247]	0	0	0	0	0	0	0	0	0	0											Sugarbeets plant response rating (sugar beet; [1]): 0; Sugarbeets plant response rating (sugar beet; [5]): 0; Plant response rating, Sugarbeets (sugar beet; [6]): 0; Barnyardgrass plant response rating (bamyardgrass; Pre-emergence, Rate 1000 g/ha, scale 0 to 10 (0 no effect, 10 complete control)): 0; B. signalgrass plant response rating (surinam grass; [1]): 0; B. signalgrass plant response rating (surinam grass; Rate 125 g/ha, Postemergence, scale 0 (no effect) to 10 (complete control)): 0; Plant response rating (0 to 10; 0 is no effect, 10 is complete control), B. signalgrass (surinam grass; Rate 250 g/ha, Postemergence): 0; B. signalgrass plant response rating (surinam grass; [5]): 0; Plant response rating, B. signalgrass (surinam grass; [6]): 0; Blackgrass plant response rating (blackgrass; [1]): 0; Plant response rating, Blackgrass (blackgrass; [3]): 0; Blackgrass plant response rating (blackgrass; Rate 125 g/ha, Postemergence, scale 0 to 10): 0; Blackgrass plant response rating (blackgrass; [4]): 0; Plant response rating (0 to 10; 0 is no effect, 10 is complete control), Blackgrass (blackgrass; Rate 250 g/ha, Postemergence): 0; Blackgrass plant response rating (blackgrass; [5]): 0; Plant response rating, Blackgrass (blackgrass; [6]): 0
Cc1ccccc1-n1c(=O)on(C(=O)N(c2ccc(Oc3ccccc3)cc2)C(C)C)c1=O [Compound 268]	0	0	0	0	0	0	0	0	0	0	0	0	0	0	0	0	0	0	0	0	B. signalgrass plant response rating (surinam grass; [14]): 0; Plant response rating, Blackgrass (blackgrass; [3]): 0; Blackgrass plant response rating (blackgrass; [14]): 0; Blackgrass plant response rating (blackgrass; [4]): 0
CC(C)N(C(=O)n1oc(=O)n(CCCCF)c1=O)c1ccc(F)cc1 [Compound 289]	8		6	0	3		8		7	9	2	0	0	0	7	3	3	8	9	9	Sugarbeets plant response rating (sugar beet; [15]): 0; Sugarbeets plant response rating (sugar beet; [16]): 0; Sugarbeets plant response rating (sugar beet; [17]): 0; Barnyardgrass plant response rating (bamyardgrass; Rate 31 g/ha, Pre-emergence section (flood test species), scale 0 to 10): 0; B. signalgrass plant response rating (surinam grass; [15]): 0; B. signalgrass plant response rating (surinam grass; [16]): 2; B. signalgrass plant response rating (surinam grass; [17]): 0; Blackgrass plant response rating (blackgrass; [15]): 2; Blackgrass plant response rating (blackgrass; [16]): 6; Blackgrass plant response rating (blackgrass; [17]): 5; Blackgrass plant response rating (blackgrass; [4]): 9
CCN(C(=O)n1oc(=O)n(C2CC2)c1=O)C1CCCCC1 [Compound 298]	0	0		0	0	0	0	0		0	0	0	0	0	0	0	0	0	0	0	Sugarbeets plant response rating (0 to 10 scale) (sugar beet; Preemergence, Rate 125 g/ha): 0; Sugarbeets plant response rating (sugar beet; [17]): 0; B. signalgrass plant response rating (0 to 10 scale, 0 is no effect, 10 is complete control) (surinam grass; Preemergence, Rate 125 g/ha): 0; B. signalgrass plant response rating (surinam grass; [17]): 0; B. signalgrass plant response rating (surinam grass; [5]): 0; Plant response rating, Blackgrass (blackgrass; [3]): 0; Blackgrass plant response rating (blackgrass; [17]): 0; Blackgrass plant response rating (blackgrass; [5]): 0
Cc1cccc(C(C)(C)C)c1-n1c(=O)on(C(=O)N(c2ccccc2)C(C)C)c1=O [Compound 303]	0			0	0	0	0			0	0	0	0	0	0	0	0	0	0	0	Sugarbeets plant response rating (0 to 10 scale) (sugar beet; Preemergence, Rate 125 g/ha): 0; Sugarbeets plant response rating (sugar beet; [3]): 0; Sugarbeets plant response rating (sugar beet; [17]): 0; B. signalgrass plant response rating (0 to 10 scale, 0 is no effect, 10 is complete control) (surinam grass; Preemergence, Rate 125 g/ha): 0; B. signalgrass plant response rating (surinam grass; [3]): 0; B. signalgrass plant response rating (surinam grass; [17]): 0; B. signalgrass plant response rating (surinam grass; [5]): 0; Blackgrass plant response rating (0 to 10 scale) (blackgrass; Preemergence, Rate 125 g/ha): 0; Blackgrass plant response rating (blackgrass; [3]): 0; Blackgrass plant response rating (blackgrass; [17]): 0; Blackgrass plant response rating (blackgrass; [5]): 0
